Tests used:
human 5-HT7 receptor = target: T1, human 5-HT7 receptor (Homo sapiens, UniProt P34969); test: radioligand binding to serotonin receptor 5-HT7 ([3H] Lysergic acid diethylamide); conditions: 10 μM ligand
T1 construct: expressed in transfected cells; host or cells: CHO
Description: For this purpose sDNA of human 5-HT7 receptor is expressed in CHO cells as it was described in [Shen Y, Monsma F J Jr, Metcalf M A, Jose P A, Hamblin M W, and Sibley DR. […] J. Biol. Chem. 1993, 268, 18200-18204]. […] J. Pharmacol. Exp. Ther. 1994, 268:1403-1410]. […] Methiothepin is used as positive control.

recombinant human 5-HT1A = target: T2, recombinant human 5-HT1A (Homo sapiens, UniProt P08908); test: radioligand binding to serotonin receptor 5-HT1A ([3H] 8-OH-DPAT); conditions: for 5-HT1A % inhibition: 10 μM ligand; for inhibition at 1 µM: ligand concentration 1 μM
T2 construct: expressed in transfected cells; host or cells: CHO
T2 sequence (P08908 1-422): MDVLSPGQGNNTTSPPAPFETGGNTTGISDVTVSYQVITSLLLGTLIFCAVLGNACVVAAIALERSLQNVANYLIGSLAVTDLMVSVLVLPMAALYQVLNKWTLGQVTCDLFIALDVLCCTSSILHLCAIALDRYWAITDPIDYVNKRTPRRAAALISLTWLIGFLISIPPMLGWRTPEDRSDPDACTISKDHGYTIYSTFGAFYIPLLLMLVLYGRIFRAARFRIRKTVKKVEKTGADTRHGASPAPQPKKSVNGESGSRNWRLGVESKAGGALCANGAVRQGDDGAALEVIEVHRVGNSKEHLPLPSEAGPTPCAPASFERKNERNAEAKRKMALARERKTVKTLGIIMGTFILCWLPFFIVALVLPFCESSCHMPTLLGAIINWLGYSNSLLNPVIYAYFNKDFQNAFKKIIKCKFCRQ
Description: J Pharmacol Exp Ther. 306(1): 301-309, 2003]. […] Metergoline is used as positive control.

[1] = target: T3, recombinant human 5-HT6 receptor (Homo sapiens, UniProt P50406); test: radioligand binding to serotonin receptor 5-HT6 ([3H] Lysergic acid diethylamide); conditions: for 5-HT6 % inhibition: 10 μM ligand
T3 construct: expressed in transfected cells; host or cells: HeLa
Description: Mol. Pharmacol. 43:320-327, 1993]. […] Methiothepin is used as positive control.

human α2A receptor = target: T4, human α2A receptor (Homo sapiens, UniProt P08913); test: radioligand binding to adrenergic receptor α2A ([3H] MK-912)
T4 construct: expressed in transfected cells; host or cells: Sf9
T4 sequence (P08913 1-465): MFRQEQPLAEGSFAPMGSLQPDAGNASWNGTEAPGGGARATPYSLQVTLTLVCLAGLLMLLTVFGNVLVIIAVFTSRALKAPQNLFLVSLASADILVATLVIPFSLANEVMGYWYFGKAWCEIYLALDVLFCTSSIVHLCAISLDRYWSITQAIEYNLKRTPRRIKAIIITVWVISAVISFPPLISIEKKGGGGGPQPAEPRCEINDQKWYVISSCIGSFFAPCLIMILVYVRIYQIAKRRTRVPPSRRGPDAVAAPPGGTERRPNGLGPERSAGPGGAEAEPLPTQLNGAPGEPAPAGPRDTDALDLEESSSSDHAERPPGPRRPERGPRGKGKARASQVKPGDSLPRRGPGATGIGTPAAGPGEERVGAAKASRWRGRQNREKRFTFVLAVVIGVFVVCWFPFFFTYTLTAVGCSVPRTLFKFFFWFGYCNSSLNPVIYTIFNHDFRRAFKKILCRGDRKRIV
Description: J Pharmacol ExpTher. […] Yohimbine is used as positive control.

[2] = target: T5, recombinant human 5-HT2C receptor (Homo sapiens, UniProt P28335); test: radioligand binding to serotonin receptor 5-HT2C ([3H] Mesulergine); conditions: for 5-HT2C % inhibition: 10 μM ligand
T5 construct: expressed in transfected cells; host or cells: CHO-K1
T5 sequence (P28335 33-458): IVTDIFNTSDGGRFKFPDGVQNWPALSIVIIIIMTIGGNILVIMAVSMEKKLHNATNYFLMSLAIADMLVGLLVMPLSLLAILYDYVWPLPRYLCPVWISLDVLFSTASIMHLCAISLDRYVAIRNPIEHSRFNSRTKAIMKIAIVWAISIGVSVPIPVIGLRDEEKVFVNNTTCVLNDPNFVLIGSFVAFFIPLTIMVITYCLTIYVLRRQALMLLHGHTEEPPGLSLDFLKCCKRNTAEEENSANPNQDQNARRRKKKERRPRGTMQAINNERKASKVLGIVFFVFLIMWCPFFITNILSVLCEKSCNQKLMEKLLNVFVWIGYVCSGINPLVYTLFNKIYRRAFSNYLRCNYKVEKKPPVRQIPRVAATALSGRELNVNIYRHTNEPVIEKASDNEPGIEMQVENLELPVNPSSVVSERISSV
Description: J. Neurochem. 69: 1449-1458, 1997]. […] SB242084 is used as positive control.

[3] = target: T6, recombinant human 5-HT2B receptor (Homo sapiens, UniProt P41595); test: radioligand binding to serotonin receptor 5-HT2B ([3H] Lysergic acid diethylamide); conditions: for 5-HT2B % inhibition: 10 μM ligand
T6 construct: expressed in transfected cells; host or cells: CHO-K1

adrenergic receptor α1A = target: T7, adrenergic receptor α1A (Rattus norvegicus, UniProt P43140); test: radioligand binding to adrenergic receptor α1A ([3H] Prazosin)
T7 construct: membrane species from rat submaxillary glands (rat of Wistar breed) are prepared; from tissue; host or cells: rat (Wistar) submaxillary gland membranes
T7 sequence (P43140 1-466): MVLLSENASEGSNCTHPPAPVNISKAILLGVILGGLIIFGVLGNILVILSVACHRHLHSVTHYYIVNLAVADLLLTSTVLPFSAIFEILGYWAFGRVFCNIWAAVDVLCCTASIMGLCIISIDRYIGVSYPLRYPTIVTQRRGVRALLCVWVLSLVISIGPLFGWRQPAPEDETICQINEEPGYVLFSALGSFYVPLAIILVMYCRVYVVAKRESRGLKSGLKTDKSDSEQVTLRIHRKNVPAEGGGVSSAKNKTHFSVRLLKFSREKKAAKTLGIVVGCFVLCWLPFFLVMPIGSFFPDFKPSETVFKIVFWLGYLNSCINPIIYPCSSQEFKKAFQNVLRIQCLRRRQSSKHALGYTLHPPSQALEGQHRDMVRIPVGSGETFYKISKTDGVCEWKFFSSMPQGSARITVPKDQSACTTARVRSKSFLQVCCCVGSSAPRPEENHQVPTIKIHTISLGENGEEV
Experimental: Determination of investigated compounds' binding to α1A receptor was carried out according to the method described in [Michel A D, Loury D N and Whiting R l. Identification of a single α1A-adrenoceptor corresponding to the α1A-subtype in rat submaxillary gland. Br J. Pharmacol. 98:883-889, 1989]. […] Prazosin is used as positive control.

human α1D receptor = target: T8, human α1D receptor (Homo sapiens, UniProt P25100); test: radioligand binding to adrenergic receptor α1D ([3H] Prazosin)
T8 construct: expressed in transfected cells; host or cells: HEK-293
T8 sequence (P25100 1-572): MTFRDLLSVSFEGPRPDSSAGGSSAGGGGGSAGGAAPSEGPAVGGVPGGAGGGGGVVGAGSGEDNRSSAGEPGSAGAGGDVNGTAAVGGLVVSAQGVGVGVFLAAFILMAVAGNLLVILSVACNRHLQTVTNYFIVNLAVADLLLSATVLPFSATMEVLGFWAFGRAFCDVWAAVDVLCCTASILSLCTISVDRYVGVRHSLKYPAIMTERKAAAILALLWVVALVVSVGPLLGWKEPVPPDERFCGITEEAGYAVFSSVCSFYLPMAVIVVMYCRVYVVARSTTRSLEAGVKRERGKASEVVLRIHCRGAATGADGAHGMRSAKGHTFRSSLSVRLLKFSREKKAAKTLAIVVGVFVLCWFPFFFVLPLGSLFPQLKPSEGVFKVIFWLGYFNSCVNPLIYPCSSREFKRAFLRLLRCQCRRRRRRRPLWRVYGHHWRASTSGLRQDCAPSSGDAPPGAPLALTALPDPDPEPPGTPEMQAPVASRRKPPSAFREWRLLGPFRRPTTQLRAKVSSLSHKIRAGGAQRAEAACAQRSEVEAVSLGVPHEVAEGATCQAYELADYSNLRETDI
Description: 6-C. […] For this purpose sDNA of human α1D receptor is expressed in HEK-293 cells, as it was described in [T L Theroux, T A Esbenshade, R D Peavy and K P Minneman. Coupling efficiencies of human alpha 1-adrenergic receptor subtypes: titration of receptor density and responsiveness with inducible and repressible expression vectors. Mol. Pharmacol.; 50: 1376-1387, 1996]. […] Prazosin is used as positive control.

adrenergic receptor α1B = target: T9, adrenergic receptor α1B (Rattus norvegicus, UniProt P15823); test: radioligand binding to adrenergic receptor α1B ([3H] Prazosin)
T9 construct: membrane species from rat liver (rat of Wistar breed) are prepared; from tissue; host or cells: rat (Wistar) liver membranes
T9 sequence (P15823 1-515): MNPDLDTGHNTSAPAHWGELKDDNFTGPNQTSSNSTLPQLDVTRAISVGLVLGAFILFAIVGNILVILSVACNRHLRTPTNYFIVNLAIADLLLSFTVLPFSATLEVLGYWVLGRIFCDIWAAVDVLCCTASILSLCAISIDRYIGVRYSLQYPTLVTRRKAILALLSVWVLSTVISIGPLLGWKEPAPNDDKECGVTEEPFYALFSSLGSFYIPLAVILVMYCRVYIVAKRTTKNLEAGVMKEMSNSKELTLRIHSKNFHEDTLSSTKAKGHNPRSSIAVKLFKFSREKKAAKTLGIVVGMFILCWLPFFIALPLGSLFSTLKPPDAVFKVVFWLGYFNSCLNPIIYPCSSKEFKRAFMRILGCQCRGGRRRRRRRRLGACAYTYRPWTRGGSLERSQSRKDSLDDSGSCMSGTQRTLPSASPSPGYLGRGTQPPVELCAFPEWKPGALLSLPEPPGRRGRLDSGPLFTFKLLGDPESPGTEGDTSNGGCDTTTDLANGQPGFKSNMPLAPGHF
Description: Species heterogeneity of hepatic α1A-, α1B-, and α1C-subtypes. Biochem Biophys Res Commun. 186:760-7676 1992]. […] Prazosin is used as positive control.

imidazoline receptor I2 = test: radioligand binding to imidazoline receptor I2 ([3H] Idazoxan); parameters: species or system rat; conditions: 10 μM ligand
Experimental: Determination of investigated compounds' binding to imidazoline I2 receptor is carried out according to the method described in [Brown C M, MacKinnon A C, McGrath J C, Spedding M and Kilpatrick A T, a2-Adrenoceptor subtypes and imidazoline-like binding in the rat brain. Br J. Pharmacol. 99:803-809, 1990]. […] Idazoxan is used as positive control.

T6 sequence (P41595 whole entry): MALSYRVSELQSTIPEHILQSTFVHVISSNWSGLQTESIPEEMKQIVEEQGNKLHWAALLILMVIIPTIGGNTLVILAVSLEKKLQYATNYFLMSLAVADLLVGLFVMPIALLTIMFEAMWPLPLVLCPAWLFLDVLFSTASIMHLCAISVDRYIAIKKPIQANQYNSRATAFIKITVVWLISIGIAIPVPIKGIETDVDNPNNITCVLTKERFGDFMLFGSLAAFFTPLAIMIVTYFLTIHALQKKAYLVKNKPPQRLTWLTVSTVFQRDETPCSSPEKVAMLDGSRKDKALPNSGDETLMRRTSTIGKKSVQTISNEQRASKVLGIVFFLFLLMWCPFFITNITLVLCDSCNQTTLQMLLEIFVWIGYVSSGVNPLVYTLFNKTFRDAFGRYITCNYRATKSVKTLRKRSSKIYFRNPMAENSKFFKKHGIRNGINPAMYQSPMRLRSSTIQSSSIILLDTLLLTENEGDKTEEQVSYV
T1 sequence (P34969 whole entry): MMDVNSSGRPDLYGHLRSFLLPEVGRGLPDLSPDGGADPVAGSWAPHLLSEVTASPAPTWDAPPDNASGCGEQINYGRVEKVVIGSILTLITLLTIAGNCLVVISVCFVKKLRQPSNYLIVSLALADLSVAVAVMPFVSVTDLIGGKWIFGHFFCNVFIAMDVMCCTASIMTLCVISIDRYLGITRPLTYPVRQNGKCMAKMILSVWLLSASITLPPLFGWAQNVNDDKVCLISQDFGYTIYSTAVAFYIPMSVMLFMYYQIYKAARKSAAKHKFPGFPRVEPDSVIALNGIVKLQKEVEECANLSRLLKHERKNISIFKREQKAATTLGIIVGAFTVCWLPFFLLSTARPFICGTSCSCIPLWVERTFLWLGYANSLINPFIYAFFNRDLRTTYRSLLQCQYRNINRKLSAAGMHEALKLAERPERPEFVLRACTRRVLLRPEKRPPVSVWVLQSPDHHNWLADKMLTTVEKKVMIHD
T3 sequence (P50406 whole entry): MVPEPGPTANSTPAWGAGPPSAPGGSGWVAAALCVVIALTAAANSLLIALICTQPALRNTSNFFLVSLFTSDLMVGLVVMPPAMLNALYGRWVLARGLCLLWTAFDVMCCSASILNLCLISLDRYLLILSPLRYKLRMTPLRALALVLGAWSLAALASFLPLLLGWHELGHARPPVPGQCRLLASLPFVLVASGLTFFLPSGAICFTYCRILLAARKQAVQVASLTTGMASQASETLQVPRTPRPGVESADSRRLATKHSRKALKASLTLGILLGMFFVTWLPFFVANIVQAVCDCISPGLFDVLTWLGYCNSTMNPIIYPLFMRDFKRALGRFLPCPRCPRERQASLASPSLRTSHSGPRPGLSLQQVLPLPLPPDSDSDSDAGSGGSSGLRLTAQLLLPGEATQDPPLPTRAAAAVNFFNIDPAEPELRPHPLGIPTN

Cc1ccc2c(c1)c1c(n2CCc2ccc(C(F)(F)F)cc2)CCN(C)C1.Cl [1.1.2(1-18)•HCl]
5-HT7 % inhibition (human 5-HT7 receptor): 103%
5-HT1A % inhibition (recombinant human 5-HT1A): 53%

COc1ccc(CCn2c3c(c4cc(C)ccc42)CN(C)CC3)cc1.Cl [1.1.2(1-14)•HCl]
5-HT6 % inhibition [1]: 108%
5-HT7 % inhibition (human 5-HT7 receptor): 100%
5-HT1A % inhibition (recombinant human 5-HT1A): 57%

CN1CCc2c(c3cc(F)ccc3n2CCCc2ccccc2)C1.Cl [1.3.3(8)•HCl]
5-HT7 % inhibition (human 5-HT7 receptor): 83%
5-HT1A % inhibition (recombinant human 5-HT1A): −4%

Cc1ccc2c(c1)c1c(n2CCc2ccncc2)CCCN(C)C1 [1.2.2(5-2)]
α-Adrenoceptor α2A, % inhibition (human α2A receptor; 10 μM ligand): 74%
inhibition at 1 µM ([1]; ligand concentration 1 μM, read-out: 5-HT6 % inhibition): 84%
inhibition at 1 µM (recombinant human 5-HT1A): 13%
inhibition at 1 µM ([2]; ligand concentration 1 μM): 92%

CN1CCc2c(c3cc(F)ccc3n2C#Cc2ccccc2)C1 [1.1(2)]
5-HT2B % inhibition [3]: 92%
5-HT2C % inhibition [2]: 100%

Cc1ccc(CCn2c3c(c4cc(F)ccc42)CN(C)CCC3)cn1 [1.2.2(4-2)•2HCl]
inhibition at 1 µM (recombinant human 5-HT1A): 31%

Cc1ccc(CCn2c3c(c4cc(C)ccc42)CN(C)CC3)cc1 [1.1.2(1-3), 2,8-dimethyl-5-[2-(4-methylphenyl)-ethyl]-1,2,3,4-tetrahydro-1H-pyrido[4,3-b]indole]
IC50 (human α2A receptor): 0.00472 µM
Ki (human α2A receptor): 0.00177 µM
IC50 (adrenergic receptor α1A): 0.0467 µM
Ki (adrenergic receptor α1A): 0.0189 µM
IC50 (human α1D receptor): 0.0615 µM
Ki (human α1D receptor): 0.0302 µM
IC50 (adrenergic receptor α1B): 0.017 µM
Ki (adrenergic receptor α1B): 0.0094 µM

CN1CCc2c(c3cc(C(F)(F)F)ccc3n2CCc2ccccc2)C1.Cl [1.1.2(1-7)•HCl, 2-methyl-8-trifluoromethyl-5-phenethyl-1,2,3,4-tetrahydro-1H-pyrido[4,3-b]indole]
5-HT7 % inhibition (human 5-HT7 receptor): 94%

Cc1ccc2c(c1)c1c(n2CCc2ccc(F)cc2)CCN(C)C1.Cl [1.1.2(1-16)•HCl]
5-HT6 % inhibition [1]: 103%
5-HT7 % inhibition (human 5-HT7 receptor): 95%
5-HT1A % inhibition (recombinant human 5-HT1A): 37%

Cc1ccc2c(c1)c1c(n2CCc2ccccc2)CCN(C)C1.Cl [1.1.2(1-2)•HCl, 2,8-dimethyl-5-phenethyl-1,2,3,4-tetrahydro-1H-pyrido[4,3-b]indole hydrochloride]
5-HT1A % inhibition (recombinant human 5-HT1A): 84%
imidazoline I2 receptor % inhibition (imidazoline receptor I2): 93%
IC50 [3]: 0.0166 µM
Ki [3]: 0.0106 µM
nH 5-HT2B [3]: 0.868
5-HT2B % inhibition [3]: 100%

Cc1ccc2c(c1)c1c(n2Cc2ccccc2)CCCN(C)C1.Cl [1.10(4)•HCl]
5-HT7 % inhibition (human 5-HT7 receptor): 75%
5-HT1A % inhibition (recombinant human 5-HT1A): 19%

Cc1ccc2c(c1)[C@@H]1CN(C)CCC[C@@H]1N2CCc1cccnc1.Cl.Cl.Cl (relative stereo) [1.6.1(1)•3HCl]
imidazoline I2 receptor % inhibition (imidazoline receptor I2): 80%

CN1CCc2c(c3cc(F)ccc3n2Cc2ccccc2)C1.Cl [1.9(3)•HCl]
5-HT7 % inhibition (human 5-HT7 receptor): 81%

Cc1ccc2c(c1)c1c(n2CC(O)c2ccccc2)CCN(C)C1 (centres unmarked) [1.1.2(1-10), 2,8-dimethyl-5-[(2-phenyl-2-hydroxy)ethyl]-1,2,3,4-tetrahydro-1H-pyrido[4,3-b]indole]
5-HT2B % inhibition [3]: 79%
5-HT2C % inhibition [2]: 96%

CN1CCc2c(c3cc(F)ccc3n2CC(O)c2ccccc2)C1 (centres unmarked) [1.1.2(1-9)]
5-HT2B % inhibition [3]: 50%
5-HT2C % inhibition [2]: 89%

Cc1ccc2c(c1)c1c(n2CCc2ccc(C)nc2)CCCN(C)C1 [1.2.2(4-1)]
imidazoline I2 receptor % inhibition (imidazoline receptor I2): 80%
